Laboratory results as given in patent US9663525B2, “Pyrazolopyrimidinyl inhibitors of ubiquitin-activating enzyme” (Millennium Pharmaceuticals, Inc., priority 2012, dated 2017).
pIC50: −log10 of the molar value. Like-named read-outs stand apart in the source and are kept apart here.

Biological target: recombinant human UAE (Homo sapiens (Human), UniProt P22314)
Assay: Ubiquitin Activating Enzyme (UAE) HTRF assay, human UAE
Procedure: After incubation for 120 minutes, quantification of the FRET is performed on the Pherostar (BMG).
For compounds whose values are marked with an asterisk (*), mouse UAE was used. For all other compounds, human UAE was used.

Chain of recombinant human UAE (P22314 whole entry): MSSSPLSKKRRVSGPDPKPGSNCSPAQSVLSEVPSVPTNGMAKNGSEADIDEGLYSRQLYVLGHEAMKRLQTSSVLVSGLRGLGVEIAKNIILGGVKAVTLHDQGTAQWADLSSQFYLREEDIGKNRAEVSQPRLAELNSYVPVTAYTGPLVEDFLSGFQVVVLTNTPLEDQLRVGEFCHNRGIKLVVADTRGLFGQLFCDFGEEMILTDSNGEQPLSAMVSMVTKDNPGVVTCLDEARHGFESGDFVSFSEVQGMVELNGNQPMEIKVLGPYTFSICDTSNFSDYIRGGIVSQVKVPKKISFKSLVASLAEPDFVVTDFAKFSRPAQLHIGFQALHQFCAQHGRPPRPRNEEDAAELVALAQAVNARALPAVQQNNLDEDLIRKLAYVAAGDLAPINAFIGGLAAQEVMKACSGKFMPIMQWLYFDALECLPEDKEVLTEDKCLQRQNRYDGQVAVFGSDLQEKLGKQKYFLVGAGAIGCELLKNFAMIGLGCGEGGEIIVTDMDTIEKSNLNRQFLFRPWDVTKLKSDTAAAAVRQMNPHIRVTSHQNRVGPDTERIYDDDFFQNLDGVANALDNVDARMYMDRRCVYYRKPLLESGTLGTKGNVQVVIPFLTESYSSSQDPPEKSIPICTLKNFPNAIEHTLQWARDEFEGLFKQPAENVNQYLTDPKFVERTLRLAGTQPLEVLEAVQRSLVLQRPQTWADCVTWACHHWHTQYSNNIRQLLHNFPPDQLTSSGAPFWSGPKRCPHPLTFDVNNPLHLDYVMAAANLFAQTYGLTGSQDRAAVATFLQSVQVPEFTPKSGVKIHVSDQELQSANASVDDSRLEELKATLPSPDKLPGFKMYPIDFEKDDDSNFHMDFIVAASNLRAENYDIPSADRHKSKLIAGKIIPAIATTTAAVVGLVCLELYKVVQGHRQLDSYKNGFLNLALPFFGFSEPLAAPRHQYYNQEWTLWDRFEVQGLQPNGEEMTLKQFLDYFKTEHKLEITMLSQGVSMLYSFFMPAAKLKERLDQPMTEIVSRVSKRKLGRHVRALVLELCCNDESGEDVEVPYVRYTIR

| SMILES | pIC50 | pIC50 (human UAE) |
| --- | --- | --- |
| NS(=O)(=O)OC[C@H]1C[C@@H](Nc2ccnc3cc(-c4ccc5[nH]ccc5c4)nn23)[C@H](O)[C@@H]1O (racemic) [Compound I-074, (rac)-[(1R,2R,3S,4R)-2,3-dihydroxy-4-{[2-(1H-indol-5-yl)pyrazolo[1,5-a]pyrimidin-7-yl]amino}cyclopentyl]methyl rel-sulfamate] | 7.00 to 8.00 |  |
| NS(=O)(=O)OC[C@H]1C[C@@H](Nc2ccnc3cc(-c4cccc5[nH]ccc45)nn23)[C@H](O)[C@@H]1O (racemic) [Compound I-075, (rac)-((1R,2R,3S,4R)-4-(2-(1H-indol-4-yl)pyrazolo[1,5-a]pyrimidin-7-ylamino)-2,3-dihydroxycyclopentyl)methyl rel-sulfamate] | > 8.00 |  |
| NS(=O)(=O)OC[C@H]1C[C@@H](Nc2ccnc3cc(-c4cccc(N5CCCCC5)c4)nn23)[C@H](O)[C@@H]1O (racemic) [Compound I-077, (rac)-((1R,2R,3S,4R)-2,3-dihydroxy-4-(2-(3-(piperidin-1-yl)phenyl)pyrazolo[1,5-a]pyrimidin-7-ylamino)cyclopentyl)methyl rel-sulfamate] | > 8.00 |  |
| NS(=O)(=O)OC[C@H]1C[C@@H](Nc2ccnc3cc(-c4cccc(N5CCOCC5)c4)nn23)[C@H](O)[C@@H]1O (racemic) [Compound I-078, (rac)-((1R,2R,3S,4R)-2,3-dihydroxy-4-(2-(3-morpholinophenyl)pyrazolo-[1,5-a]pyrimidin-7-ylamino)cyclopentyl)methyl rel-sulfamate] | > 8.00 |  |
| NS(=O)(=O)OC[C@H]1C[C@@H](Nc2ccnc3cc(-c4ccccc4SC(F)(F)F)nn23)[C@H](O)[C@@H]1O (racemic) [Compound I-079, (rac)-((1R,2R,3S,4R)-2,3-dihydroxy-4-(2-(2-(trifluoromethylthio)phenyl)pyrazolo[1,5-a]pyrimidin-7-ylamino)cyclopentyl)methyl rel-sulfamate] | 7.00 to 8.00 |  |
| NS(=O)(=O)OC[C@H]1C[C@@H](Nc2ccnc3cc(-c4ccc(SC(F)(F)F)cc4)nn23)[C@H](O)[C@@H]1O (racemic) [Compound I-080, (rac)-((1R,2R,3S,4R)-2,3-dihydroxy-4-(2-(4-(trifluoromethylthio)phenyl)pyrazolo[1,5-a]pyrimidin-7-ylamino)cyclopentyl)methyl rel-sulfamate] | 7.00 to 8.00 |  |
| NS(=O)(=O)OC[C@H]1C[C@@H](Nc2ccnc3cc(-c4csc5ccc(F)cc45)nn23)[C@H](O)[C@@H]1O (racemic) [Compound I-081, (rac)-((1R,2R,3S,4R)-4-(2-(5-fluorobenzo[b]thiophen-3-yl)pyrazolo[1,5-a]pyrimidin-7-ylamino)-2,3-dihydroxycyclopentyl)methyl rel-sulfamate] | > 8.00 |  |
| C#Cc1cccc(-c2cc3nccc(N[C@@H]4C[C@H](COS(N)(=O)=O)[C@@H](O)[C@H]4O)n3n2)c1 (racemic) [Compound I-083, (rac)-[(1R,2R,3S,4R)-4-{[2-(3-ethynylphenyl)pyrazolo[1,5-a]pyrimidin-7-yl]amino}-2,3-dihydroxycyclopentyl]methyl rel-sulfamate] | > 8.00 |  |
| CCOC(C)(C)c1cccc(-c2cc3nccc(N[C@@H]4C[C@H](COS(N)(=O)=O)[C@@H](O)[C@H]4O)n3n2)c1 (racemic) [Compound I-084, (rac)-((1R,2R,3S,4R)-4-(2-(3-(2-ethoxypropan-2-yl)phenyl)pyrazolo[1,5-a]pyrimidin-7-ylamino)-2,3-dihydroxycyclopentyl)methyl rel-sulfamate] | > 8.00 |  |
| NS(=O)(=O)OC[C@H]1C[C@@H](Nc2ccnc3cc(-c4ccc5c(c4)C(=O)c4ccccc4-5)nn23)[C@H](O)[C@@H]1O (racemic) [Compound I-085, (rac)-((1R,2R,3S,4R)-2,3-dihydroxy-4-(2-(9-oxo-9H-fluoren-2-yl)pyrazolo[1,5-a]pyrimidin-7-ylamino)cyclopentyl)methyl rel-sulfamate] | > 8.00 |  |
| NS(=O)(=O)OC[C@H]1C[C@@H](Nc2ccnc3cc(-c4cc5ccccc5o4)nn23)[C@H](O)[C@@H]1O (racemic) [Compound I-086, (rac)-((1R,2R,3S,4R)-4-(2-(benzofuran-2-yl)pyrazolo[1,5-a]pyrimidin-7-ylamino)-2,3-dihydroxycyclopentyl)methyl rel-sulfamate] | > 8.00 |  |
| NS(=O)(=O)OC[C@H]1C[C@@H](Nc2ccnc3cc(-c4cccc(N5CCCC5=O)c4)nn23)[C@H](O)[C@@H]1O (racemic) [Compound I-087, (rac)-((1R,2R,3S,4R)-2,3-dihydroxy-4-(2-(3-(2-oxopyrrolidin-1-yl)phenyl)pyrazolo[1,5-a]pyrimidin-7-ylamino)cyclopentyl)methyl rel-sulfamate] | > 8.00 |  |
| NS(=O)(=O)OC[C@H]1C[C@@H](Nc2ccnc3cc(-c4cc5ccc(Cl)cc5s4)nn23)[C@H](O)[C@@H]1O (racemic) [Compound I-088, (rac)-((1R,2R,3S,4R)-4-(2-(6-chlorobenzo[b]thiophen-2-yl)pyrazolo[1,5-a]pyrimidin-7-ylamino)-2,3-dihydroxycyclopentyl)methyl rel-sulfamate] | 7.00 to 8.00 |  |
| CCCOC(C)(C)c1cccc(-c2cc3nccc(N[C@@H]4C[C@H](COS(N)(=O)=O)[C@@H](O)[C@H]4O)n3n2)c1 (racemic) [Compound I-090, (rac)-((1R,2R,3S,4R)-2,3-dihydroxy-4-(2-(3-(2-propoxypropan-2-yl)phenyl)pyrazolo[1,5-a]pyrimidin-7-ylamino)cyclopentyl)methyl rel-sulfamate] | > 8.00 |  |
| NS(=O)(=O)OC[C@H]1C[C@@H](Nc2ccnc3cc(-c4coc5ccc(Cl)cc45)nn23)[C@H](O)[C@@H]1O (racemic) [Compound I-092, (rac)-((1R,2R,3S,4R)-4-(2-(5-chlorobenzofuran-3-yl)pyrazolo[1,5-a]pyrimidin-7-ylamino)-2,3-dihydroxycyclopentyl)methyl rel-sulfamate] | > 8.00 |  |
| NS(=O)(=O)OC[C@H]1C[C@@H](Nc2ccnc3cc(-c4ccc5c(c4)oc4ccccc45)nn23)[C@H](O)[C@@H]1O (racemic) [Compound I-093, (rac)-((1R,2R,3S,4R)-4-(2-(dibenzo[b,d]furan-3-yl)pyrazolo[1,5-a]pyrimidin-7-ylamino)-2,3-dihydroxycyclopentyl)methyl rel-sulfamate] | > 8.00 |  |
| CCc1ccc2sc(-c3cc4nccc(N[C@@H]5C[C@H](COS(N)(=O)=O)[C@@H](O)[C@H]5O)n4n3)cc2c1 (racemic) [Compound I-095, (rac)-((1R,2R,3S,4R)-4-(2-(5-ethylbenzo[b]thiophen-2-yl)pyrazolo[1,5-a]pyrimidin-7-ylamino)-2,3-dihydroxycyclopentyl)methyl rel-sulfamate] | 7.00 to 8.00 |  |
| NS(=O)(=O)OC[C@H]1C[C@@H](Nc2ccnc3cc(-c4cncc(-c5ccccc5)n4)nn23)[C@H](O)[C@@H]1O (racemic) [Compound I-121, (rac)-((1R,2R,3S,4R)-2,3-dihydroxy-4-{[2-(6-phenylpyrazin-2-yl)pyrazolo[1,5-a]pyrimidin-7-yl]amino}cyclopentyl)methyl rel-sulfamate] | > 8.00 |  |
| Cn1cc(-c2cccc(-c3cc4nccc(N[C@@H]5C[C@H](COS(N)(=O)=O)[C@@H](O)[C@H]5O)n4n3)c2)cn1 (racemic) [Compound I-122, (rac)-[(1R,2R,3S,4R)-2,3-dihydroxy-4-({2-[3-(1-methyl-1H-pyrazol-4-yl)phenyl]pyrazolo[1,5-a]pyrimidin-7-yl}amino)cyclopentyl]methyl rel-sulfamate] | > 8.00 |  |
| Cc1cc(N[C@@H]2C[C@H](COS(N)(=O)=O)[C@@H](O)[C@H]2O)n2nc(-c3ccccc3)cc2n1 (relative stereo) [Compound I-004, (rac)-{(1R,2R,3S,4R)-2,3-dihydroxy-4-[(5-methyl-2-phenylpyrazolo[1,5-a]pyrimidin-7-yl)amino]cyclopentyl}methyl rel-sulfamate] | 6.00 to 7.00 |  |
| NS(=O)(=O)OC[C@H]1C[C@@H](Nc2cc(Cl)nc3cc(-c4ccccc4)nn23)[C@H](O)[C@@H]1O (relative stereo) [Compound I-006, (rac)-{(1R,2R,3S,4R)-4-[(5-chloro-2-phenylpyrazolo[1,5-a]pyrimidin-7-yl)amino]-2,3-dihydroxycyclopentyl}methyl rel-sulfamate] | 6.00 to 7.00 |  |
| Cc1cnc2cc(-c3ccccc3)nn2c1N[C@@H]1C[C@H](COS(N)(=O)=O)[C@@H](O)[C@H]1O (relative stereo) [Compound I-089, (rac)-{(1R,2R,3S,4R)-2,3-dihydroxy-4-[(6-methyl-2-phenylpyrazolo[1,5-a]pyrimidin-7-yl)amino]cyclopentyl}methyl rel-sulfamate] | 6.00 to 7.00 |  |
| COC(=O)c1ccc2c(-c3cc4nccc(N[C@@H]5C[C@H](COS(N)(=O)=O)[C@@H](O)[C@H]5O)n4n3)cccc2c1 (relative stereo) [Compound I-096, (rac)-methyl rel-5-[7-({(1R,2S,3R,4R)-2,3-dihydroxy-4-[(sulfamoyloxy)methyl]cyclopentyl}amino)pyrazolo[1,5-a]pyrimidin-2-yl]-2-naphthoate] | > 8.00 |  |
| CC(CO)(CCl)c1cccc(-c2cc3nccc(N[C@@H]4C[C@H](COS(N)(=O)=O)[C@@H](O)[C@H]4O)n3n2)c1 (relative stereo) [Compound I-123, (rac)-{(1R,2R,3S,4R)-4-[(2-{3-[2-chloro-1-(hydroxymethyl)-1-methylethyl]phenyl}pyrazolo[1,5-a]pyrimidin-7-yl)amino]-2,3-dihydroxycyclopentyl}methyl rel-sulfamate] | > 8.00 |  |
| NS(=O)(=O)OC[C@H]1C[C@@H](Nc2ccnc3cc(-c4cccc5ccccc45)nn23)[C@H](O)[C@@H]1O [Compound I-098, (s.e.)-((1R,2R,3S,4R)-2,3-dihydroxy-4-{[2-(1-naphthyl)pyrazolo[1,5-a]pyrimidin-7-yl]amino}cyclopentyl)methyl sulfamate] |  | > 8.00 |
| COc1ccc(OC(F)(F)F)cc1-c1cc2nccc(N[C@@H]3C[C@H](COS(N)(=O)=O)[C@@H](O)[C@H]3O)n2n1 [Compound I-102, (s.e)-[(1R,2R,3S,4R)-2,3-dihydroxy-4-({2-[2-methoxy-5-(trifluoromethoxy)-phenyl]pyrazolo[1,5-a]pyrimidin-7-yl}amino)cyclopentyl]methyl sulfamate] |  | > 8.00 |
